The conditions of data set [1]: cited from earlier work; for Effective pH Range: buffer without pK index; for pKa values for the single buffers, second value: Table 5, in parentheses; for Effective pH Range (pK1): line labelled pK1; for Effective pH Range (pK2): line labelled pK2; for Effective pH Range (pK3): line labelled pK3.
The nature of data set [2]: Temperature dependence of pH of buffer solutions, ratiometric UV-vis (A418/A623) with indicator 1. The format is physicochemical. The settings on record: for pH at plateau: plateau 150 K to 90 K; for pH at 298 K: single buffers; for direction of pH change as the solution is equilibrated at lower temperatures: FIG. 4, 50 mM buffer solutions containing 75% glycerol.
For data set [3] the following is noted: pH-sensitive dye; cited from earlier work.
The conditions of data set [4]: cited from earlier work.
The nature of data set [5]: Freeze-thaw storage stability of oxacillin solutions in various buffers, HPLC. Format: physicochemical.
The conditions of data set [6]: cited from earlier work. This is another data set of the same source.
Setting [7] is: Table 3, change in pH with decreasing temperature, pH 6.1 at 298 K.

“And” between values parts separate entries of the source, which are not always exact repeats. Equal entries are not always repeated. Residues, ends and D or L forms follow the SMILES beside them.

On to `NC(=O)CNCCS(=O)(=O)O` [ACES], for which the “Effective pH Range” value in data set [1] (Table 2) is recorded as 6.1–7.5.
As to `CC(C)(N)CO` [AMP, 2-amino-2-methyl-1-propanol], the “Effective pH Range” value in data set [1] (Table 2) is on record as 8.7–10.4.
For the molecule `CC(N)(CO)CO` [AMPD, 2-amino-2-methyl-1,3-propanediol], in data set [1] (Table 2), the “Effective pH Range” value was 7.8–9.7.
As to `CC(C)(CO)NCC(O)CS(=O)(=O)O` (centres unmarked) [AMPSO], in data set [1] (Table 2), the “Effective pH Range” value is recorded as 8.3–9.7.
In general, pKa refers to the pH at which an ionisable group is half protonated. For the molecule `OCC(CO)(CO)NCCCNC(CO)(CO)CO` [BIS-TRIS propane, 1,3-bis[tris(hydroxymethyl)methylamino]propane], the “Effective pH Range” value in data set [1] (Table 2) is recorded as 6.3–9.5. Also, in data set [1] (Table 2, pK2 or second value printed in the cell), the “pKa at 25° C., pK2” value is 9.00. In addition, the “pKa values for the single buffers, second value” in data set [1] is 9.0. The ΔpH result in data set [2] (setting [7]) is listed as “+2.1”. The pH at plateau in data set [2] (Table 3, pH 6.1 at 298 K) worked out at 8.2. Further, the “pH at 298 K” value in data set [2] (Table 3) was determined as 6.1.
Consider `Cc1c(C2(c3cc(Br)c(O)c(Br)c3C)OS(=O)(=O)c3ccccc32)cc(Br)c(O)c1Br` [Bromocresol green], for which the pKa in data set [3] is given as 4.6.
On to `O=S(=O)(O)CCCCNC1CCCCC1` [CABS], for which, in data set [1] (Table 2), the “Effective pH Range” value is recorded as 10.0–11.4.
Consider `O=S(=O)(O)CC(O)CNC1CCCCC1` (centres unmarked) [CAPSO], for which the “Effective pH Range” value in data set [1] (Table 2) is on record as 8.9–10.3.
Turning to `O=S(=O)(O)CCCNC1CCCCC1` [CAPS], in data set [1] (Table 2), the “Effective pH Range” value was 9.7–11.1.
With `O=S(=O)(O)CCNC1CCCCC1` [CHES], the “Effective pH Range” value in data set [1] (Table 2) was 8.6–10.0.
In the case of `O=S(=O)(O)CC(O)CN(CCO)CCO` (centres unmarked) [DIPSO], the “Effective pH Range” value in data set [1] (Table 2) was 7.0–8.2.
As for `O=S(=O)(O)CCCCN1CCN(CCO)CC1` [HEPBS], the “Effective pH Range” value in data set [1] (Table 2) is 7.6–9.0.
Take `O=P(O)(O)O` [KPhosphate, potassium phosphate]: in data set [2] (298 K to 90 K, 50 mM buffer, pH 7.0), the “ΔpH over a 208 K range” value is recorded as −0.50. For the same molecule, in data set [2], the “direction of pH change as the solution is equilibrated at lower temperatures” value (from here on “direction of pH change … at lower temperatures”) is “decreases”. Besides, the pH at plateau in data set [2] (Table 3, pH 7.0 at 298 K) was 6.5; in data set [2] (Table 3, pH 8.0 at 298 K), 7.3. For the same molecule, the “pH at 298 K” value in data set [2] (Table 3) is 8.0 and 7.0. The values for the ΔpH in data set [2] (pH 7) and in data set [2] (pH 8) were −0.5 and −0.7, respectively. For the same molecule, the pH change in data set [2] (starting from pH 8.0, indicator 1) is listed as ~−0.7 units.
With `O=S(=O)(O)CCN1CCOCC1` [MES, 2-morpholinoethanesulfonic acid], the ΔpH result in data set [2] (Table 3, change in pH with decreasing temperature, pH 6.0 at 298 K) is “+1.4”. In data set [2] (Table 3, pH 6.0 at 298 K), this molecule returned a pH at plateau of 7.4. For the same molecule, the “pH at 298 K” value in data set [2] (Table 3) came out at 6.0.
As to `O=S(=O)(O)CCCN1CCOCC1` [MOPS, 3-N-morpholino propansulfonic acid], in data set [1] (Table 2), the “Effective pH Range” value is listed as 6.5–7.9. Besides, in data set [2], the “direction of pH change … at lower temperatures” value is on record as “increases”. Also, in data set [2] (setting [7]), the ΔpH entry is on record as “+1.6”. Moreover, the pH at plateau in data set [2] (Table 3, pH 6.1 at 298 K) is 7.7. Also, the “pH at 298 K” value in data set [2] (Table 3) is reported as 6.1. Further, the “increase of pH upon lowering the temperature” value in data set [2] (room temperature to ~170 K, 50 mM, 75% glycerol) is reported as “about 1.6 pH unit”. Also, the “degree of pH change with temperature, 50% glycerol versus 75% glycerol” value in data set [2] (sample containing 50% glycerol, FIG. 6) was “somewhat larger”.
In turn, `CC(=O)[O-].[Na+]` [Na-Acetate, sodium acetate] displayed a pH at plateau in data set [2] (Table 3, pH 5.0 at 298 K) of 5.4. For the same molecule, in data set [2] (Table 3), the “pH at 298 K” value worked out at 5.0. Moreover, the ΔpH result in data set [2] (pH 5) is reported as “+0.4”.
Regarding `O=S(=O)(O)CCN1CCN(CCS(=O)(=O)O)CC1` [PIPES], in data set [1] (Table 2), the “Effective pH Range” value was 6.1–7.5.
For `O=S(=O)(O)CC(O)CN1CCN(CC(O)CS(=O)(=O)O)CC1` (centres unmarked) [POPSO], the “Effective pH Range” value in data set [1] (Table 2) is listed as 7.2–8.5.
For the molecule `O=S(=O)(O)CCCCNC(CO)(CO)CO` [TABS], in data set [1] (Table 2), the “Effective pH Range” value was 8.2–9.6.
As to `O=S(=O)(O)CC(O)CNC(CO)(CO)CO` (centres unmarked) [TAPSO], the “Effective pH Range” value in data set [1] (Table 2) was 7.0–8.2.
As to `O=S(=O)(O)CCCNC(CO)(CO)CO` [TAPS], the “Effective pH Range” value in data set [1] (Table 2) was 7.7–9.1.
On to `O=C(O)C(O)C(O)C(=O)O` (centres unmarked) [Tartrate], for which the “pKa values for the single buffers, second value” in data set [1] is “(3.00, 4.40)^1”.
Regarding `NC(CO)(CO)CO` [Trizma, 2-Amino-2-(hydroxymethyl)-1,3-propanediol], the “Effective pH Range” value in data set [1] (Table 2) was 7.5–9.0. Besides, in data set [2], the “direction of pH change … at lower temperatures” value was “increases”. The ΔpH entry in data set [2] (Table 3, change in pH with decreasing temperature, pH 7.0 at 298 K) is “+2.2”. This molecule also had a pH at plateau in data set [2] (Table 3, pH 7.0 at 298 K) of 9.2. The “pH at 298 K” value in data set [2] (Table 3) came out at 7.0.
With `CC(=O)O` [acetate], the “direction of pH change … at lower temperatures” value in data set [2] is given as “increases”.
Regarding `N` [ammonium hydroxide], the “Effective pH Range” value in data set [1] (Table 2) was 8.8–9.9.
Consider `O=C(O)O` [carbonate], for which, in data set [1] (Table 2), the “Effective pH Range (pK1)” value was 6.0–8.0 and the “Effective pH Range (pK2)” value is 9.5–11.1.
Take `O=C(O)CC(O)(CC(=O)O)C(=O)O` [citrate]: in data set [1] (Table 2), the “Effective pH Range (pK1)” value is 2.2–6.5, the “Effective pH Range (pK2)” value is recorded as 3.0–6.2 and the “Effective pH Range (pK3)” value is on record as 5.5–7.2.
On to `COc1cccc2c1C(=O)c1c(O)c3c(c(O)c1C2=O)C[C@@](O)(C(=O)CO)C[C@@H]3O[C@H]1C[C@H](N)[C@H](O)[C@H](C)O1` [doxorubicin], for which the “therapeutic activity upon repeated freeze-thaw treatments” value in data set [4] (freeze (−20° C.)-thaw (+37° C.), correlates with hydrolysis of the aminoglycoside bond) is “gradually reduces therapeutic activity”. Also, the “optimum pH for storage stable, ready-to-use formulations” value in data set [4] (storage at 4-8° C.) is listed as 3.0.
For the molecule `NCC(=O)O` [glycine], in data set [1] (Table 2), the “Effective pH Range (pK1)” value was 2.2–3.6 and the “Effective pH Range (pK2)” value is listed as 8.8–10.6.
Turning to `NCC(=O)NCC(=O)O` [glycylglycine] (H-Gly-Gly-OH), in data set [1] (Table 2), the “Effective pH Range (pK1)” value is 2.5–3.8 and the “Effective pH Range (pK2)” value is 7.5–8.9. For the same molecule, the “pKa at 25° C., pK1” value in data set [1] (Table 2, pK1 or first value printed in the cell) is 3.14.
`c1c[nH]cn1` [imidazole]: the “Effective pH Range” value in data set [1] (Table 2) is reported as 6.2–7.8.
Regarding `O=C(O)CC(O)C(=O)O` (centres unmarked) [malate], in data set [1] (Table 2), the “Effective pH Range (pK1)” value is 2.7–4.2 and the “Effective pH Range (pK2)” value is reported as 4.0–6.0.
As for `Cc1onc(-c2ccccc2)c1C(=O)N[C@@H]1C(=O)N2[C@@H]1SC(C)(C)[C@@H]2C(=O)O` [oxacillin], in data set [5] (200 μM in 50 mM BisTris Propane buffer pH 7.0, 193 K, freeze-thaw over eight days), the “hydrolysis of the antibiotic on storage, versus HEPES:KPhosphate (60:40) buffered solution” value was “greater hydrolysis”. For the same molecule, the “pH-induced hydrolysis under freeze-thaw storage conditions” value in data set [5] (200 μM in 50 mM HEPES:KPhosphate (60:40) pH 7.0, 193 K, eight days) is listed as “reduced”.
Consider `C1CNCCN1` [piperazine], for which, in data set [1] (Table 2), the “Effective pH Range (pK1)” value is recorded as 5.0–6.0 and the “Effective pH Range (pK2)” value is 9.5–9.8.
On to `O=P(O)(O)OP(=O)(O)O` [pyrophosphate], for which, in data set [1] (Table 2), the “Effective pH Range” value is on record as 7.0–9.0.
On to `O=C(O)CNC(CO)(CO)CO` [tricine], for which the “Effective pH Range” value in data set [1] (Table 2) is 7.4–8.8.
As for phosphate, in data set [1] (Table 2), the “Effective pH Range (pK1)” value is 1.7–2.9, the “Effective pH Range (pK2)” value is 5.8–8.0 and the “Effective pH Range (pK3)” value is 11.5–13.0.
Turning to “thrombin-activated porcine factor VIII: thrombin-activated porcine factor VIII, heterotrimeric coagulation protein”, the “coagulation activity between pH 7 and 8” value in data set [6] (between pH 7 and 8) was “sharp decline”. Also, the “state of the protein at pH 6.0” value in data set [6] (pH 6.0 at 4° C. or 20° C.) was “stable, active, heterotrimer”.

Source of the values: patent US8183046B2, “Temperature resistant pH buffers for use at low temperatures” (The Board of Trustees of the University of Illinois, priority 2007, dated 2012).
